Laboratory results from patent US20240368156A1, “2-AZABICYCLO[2.2.1]HEPTANE KRAS INHIBITORS” (INCYTE CORPORATION, priority 2023, published 2024).

Experiments:
KRAS G12D = KRAS G12D (Homo sapiens, UniProt P01116, G12D); assay: GDP-GTP exchange assay (bodipy-GDP/GppNHp, SOS1), KRAS G12D; assay type: biochemical; details: 2.5 nM bodipy-loaded KRAS G12D, 4 h pre-incubation, 2 h reaction with GppNHp and SOS1; for certain compounds the most potent isomer is quoted; read-out: KRAS_G12D exchange assay IC50
KRAS G12D, sequence (P01116 1-188 isoform P01116-2 G12D): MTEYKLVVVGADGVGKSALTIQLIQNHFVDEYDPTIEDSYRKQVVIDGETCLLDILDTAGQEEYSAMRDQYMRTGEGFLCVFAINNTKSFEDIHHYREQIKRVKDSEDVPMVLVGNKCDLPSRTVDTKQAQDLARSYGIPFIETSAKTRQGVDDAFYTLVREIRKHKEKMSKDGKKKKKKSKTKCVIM
Experimental: (§1) The inhibitor potency of the exemplified compounds was determined in a fluorescence based guanine nucleotide exchange assay, which measures the exchange of bodipy-GDP (fluorescently labeled GDP) for GppNHp (Non-hydrolyzable GTP analog) to generate the active state of KRAS in the presence of SOS1 (guanine nucleotide exchange factor). Inhibitors were serially diluted in DMSO and a volume of 0.1 μL was transferred to the wells of a black low volume 384-well plate. 5 µL/well volume of bodipy-loaded KRAS G12D diluted to 2.5 nM in assay buffer (25 mM Hepes pH 7.5, 50 mM NaCl, 10 mM MgCl2 and 0.01% Brij-35) was added to the plate and pre-incubated with inhibitor for 4 h at r.t. Appropriate controls (enzyme with no inhibitor or with a G12D inhibitor) were included on the plate. The exchange was initiated by the addition of a 5 μL/well volume containing 1 mM GppNHp and 300 nM SOS1 in assay buffer. The 10 μL/well reaction concentration of the bodipy-loaded KRAS G12D, GppNHp, and SOS1 were 2.5 nM, 500 μM, and 150 nM, respectively. The reaction plates were incubated at r.t. for 2 h, a time estimated for complete GDP-GTP exchange in the absence of inhibitor. For the KRAS G12V mutant, similar guanine nucleotide exchange assays were used with 2.5 nM as final concentration for the bodipy loaded KRAS proteins and 3 h incubation after adding GppNHp-SOS1 mixture. A cyclic peptide described to selectively bind G12D mutant (Sakamoto et al., BBRC 484.3 (2017), 605-611) or internal compounds with confirmed binding were used as positive controls in the assay plates. Fluorescence intensities were measured on a PheraStar plate reader instrument (BMG Labtech) with excitation at 485 nm and emission at 520 nm.
(§2) Either GraphPad prism or Genedata Screener SmartFit was used to analyze the data. The IC50 values were derived by fitting the data to a four parameter logistic equation producing a sigmoidal dose-response curve with a variable Hill coefficient.
(§3) The symbol “†” indicates IC50≤100 nM, “††” indicates IC50>100 nM but ≤1 μM; and “†††” indicates IC50 is >1 μM but ≤5 μM, “††††” indicates IC50 is >5 µM but ≤10 μM. “NA” indicates IC50 not available.

KRAS G12V = KRAS G12V (Homo sapiens, UniProt P01116, G12V); assay: GDP-GTP exchange assay (bodipy-GDP/GppNHp, SOS1), KRAS G12V; assay type: biochemical; details: 2.5 nM bodipy-loaded KRAS G12V, 3 h incubation after adding GppNHp-SOS1; for certain compounds the most potent isomer is quoted; read-out: KRAS_G12V exchange assay IC50
KRAS G12V, sequence (P01116 1-188 isoform P01116-2 G12V): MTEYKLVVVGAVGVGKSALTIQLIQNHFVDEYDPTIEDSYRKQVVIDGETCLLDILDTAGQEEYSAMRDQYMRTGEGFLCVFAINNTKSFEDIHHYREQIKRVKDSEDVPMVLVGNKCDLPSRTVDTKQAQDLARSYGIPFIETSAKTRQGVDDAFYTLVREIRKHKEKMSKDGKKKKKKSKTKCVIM
Experimental: as §1, §2, §3

Compound	IC50 (KRAS G12D) [nM]	IC50 (KRAS G12V) [nM]
CC(C)(O)c1ccc(-c2nc3c(F)c(-c4cccc(Cl)c4Cl)c(CCC#N)cc3c3c2cc([C@H]2[C@@H]4CC[C@@H](C4)N2C(=O)C2CC2)n3[C@H]2[C@H]3CN[C@@H]2C3)cn1 [Example 13, 3-(1-((1R,4R,5S)-2-azabicyclo[2.1.1]hexan-5-yl)-2-((1S,3R,4R)-2-(cyclopropanecarbonyl)-2-azabicyclo[2.2.1]heptan-3-yl)-7-(2,3-dichlorophenyl)-6-fluoro-4-(6-(2-hydroxypropan-2-yl)pyridin-3-yl)-1H-pyrrolo[3,2-c]quinolin-8-yl)propanenitrile]	≤ 100	≤ 100
C[C@@H](O)c1nc2c(F)c(-c3cccc(Cl)c3Cl)c(CCC#N)cc2c2c1cc([C@H]1[C@H]3C[C@H](C[C@@H]3F)N1C(=O)C1(F)CC1)n2[C@H]1[C@H]2CN[C@@H]1C2 (single isomer, unassigned) [Example 8]	≤ 100	≤ 100
Cc1nc2c(F)c(-c3cccc(Cl)c3Cl)c(CCC#N)cc2c2c1cc([C@H]1[C@H]3C[C@H](C[C@H]3C)N1C(=O)C1CC1)n2C1[C@H]2CN[C@@H]1C2 (stereo partly drawn) [Example 18, 3-(1-((1R,4R)-2-azabicyclo[2.1.1]hexan-5-yl)-2-((1S,3R,4S,5R)-2-(cyclopropanecarbonyl)-5-methyl-2-azabicyclo[2.2.1]heptan-3-yl)-7-(2,3-dichlorophenyl)-6-fluoro-4-methyl-1H-pyrrolo[3,2-c]quinolin-8-yl)propanenitrile]	≤ 100	≤ 100
Cc1nc2c(F)c(-c3cccc(Cl)c3Cl)c(CCC#N)cc2c2c1cc([C@H]1[C@H]3C[C@H](C[C@@H]3Oc3cccnc3)N1C(=O)C1CC1)n2C1[C@H]2CN[C@@H]1C2 (stereo partly drawn) [Example 27, 3-(1-((1R,4R)-2-azabicyclo[2.1.1]hexan-5-yl)-2-((1R,3R,4R,5S)-2-(cyclopropanecarbonyl)-5-(pyridin-3-yloxy)-2-azabicyclo[2.2.1]heptan-3-yl)-7-(2,3-dichlorophenyl)-6-fluoro-4-methyl-1H-pyrrolo[3,2-c]quinolin-8-yl)propanenitrile]	≤ 100	≤ 100
[2H]C([2H])([2H])O[C@H]1C[C@H]2C[C@@H]1[C@H](c1cc3c(C)nc4c(F)c(-c5cccc(Cl)c5Cl)c(CCC#N)cc4c3n1C1[C@H]3CN[C@@H]1C3)N2C(=O)C1CC1 (stereo partly drawn) [Example 23, 3-(1-((1R,4R)-2-azabicyclo[2.1.1]hexan-5-yl)-2-((1R,3R,4R,5S)-2-(cyclopropanecarbonyl)-5-(methoxy-d3)-2-azabicyclo[2.2.1]heptan-3-yl)-7-(2,3-dichlorophenyl)-6-fluoro-4-methyl-1H-pyrrolo[3,2-c]quinolin-8-yl)propanenitrile]	≤ 100	≤ 100
Cc1nc2c(F)c(-c3cccc(Cl)c3Cl)c(CCC#N)cc2c2c1cc([C@H]1[C@H]3C[C@H](C[C@@H]3OC(F)F)N1C(=O)C1(F)CC1)n2[C@H]1[C@H]2CN[C@@H]1C2 (atropisomer, axis not shown; (Ra)) [Example 10, 3-((Ra)-1-((1R,4R,5S)-2-Azabicyclo[2.1.1]hexan-5-yl)-7-(2,3-dichlorophenyl)-2-((1R,3R,4R,5S)-5-(difluoromethoxy)-2-(1-fluorocyclopropane-1-carbonyl)-2-azabicyclo[2.2.1]heptan-3-yl)-6-fluoro-4-methyl-1H-pyrrolo[3,2-c]quinolin-8-yl)propanenitrile]	≤ 100	≤ 100
[2H]C([2H])([2H])O[C@H]1C[C@H]2C[C@@H]1[C@H](c1cc3c(C)nc4c(F)c(-c5cccc(Cl)c5Cl)c(CCC#N)cc4c3n1[C@H]1[C@H]3CN[C@@H]1C3)N2C(=O)C1CC1 (atropisomer, axis not shown; (Ra)) [Example 4, 3-((Ra)-1-((1R,4R,5S)-2-Azabicyclo[2.1.1]hexan-5-yl)-2-((1R,3R,4R,5S)-2-(cyclopropanecarbonyl)-5-(methoxy-d3)-2-azabicyclo[2.2.1]heptan-3-yl)-7-(2,3-dichlorophenyl)-6-fluoro-4-methyl-1H-pyrrolo[3,2-c]quinolin-8-yl)propanenitrile]	≤ 100	≤ 100
Cc1nc2c(F)c(-c3cccc(Cl)c3Cl)c(CCC#N)cc2c2c1cc([C@H]1[C@H]3C[C@H](C[C@@H]3F)N1C(=O)C1CC1)n2[C@H]1[C@H]2CN[C@@H]1C2 (atropisomer, axis not shown; (Ra)) [Example 2, 3-((Ra)-1-((1R,4R,5S)-2-Azabicyclo[2.1.1]hexan-5-yl)-2-((1R,3R,4R,5S)-2-(cyclopropanecarbonyl)-5-fluoro-2-azabicyclo[2.2.1]heptan-3-yl)-7-(2,3-dichlorophenyl)-6-fluoro-4-methyl-1H-pyrrolo[3,2-c]quinolin-8-yl)propanenitrile]	≤ 100	≤ 100
CO[C@@H]1C[C@H]2C[C@@H]1[C@H](c1cc3c(C)nc4c(F)c(-c5cccc(Cl)c5Cl)c(CCC#N)cc4c3n1C1[C@H]3CN[C@@H]1C3)N2C(=O)C1CC1 (stereo partly drawn) [Example 22, 3-(1-((1R,4R)-2-azabicyclo[2.1.1]hexan-5-yl)-2-((1R,3R,4R,5R)-2-(cyclopropanecarbonyl)-5-methoxy-2-azabicyclo[2.2.1]heptan-3-yl)-7-(2,3-dichlorophenyl)-6-fluoro-4-methyl-1H-pyrrolo[3,2-c]quinolin-8-yl)propanenitrile]	100 to 1000	100 to 1000
Cc1nc2c(F)c(-c3cccc(Cl)c3Cl)c(CCC#N)cc2c2c1cc([C@H]1[C@H]3C[C@H](C[C@@H]3OC3CC3)N1C(=O)C1CC1)n2[C@H]1[C@H]2CN[C@@H]1C2 [Example 36, 3-(1-((1R,4R,5S)-2-Azabicyclo[2.1.1]hexan-5-yl)-2-((1R,3R,4R,5S)-2-(cyclopropanecarbonyl)-5-cyclopropoxy-2-azabicyclo[2.2.1]heptan-3-yl)-7-(2,3-dichlorophenyl)-6-fluoro-4-methyl-1H-pyrrolo[3,2-c]quinolin-8-yl)propanenitrile]	≤ 100	≤ 100
Cc1nc2c(F)c(-c3cccc(Cl)c3Cl)c(CCC#N)cc2c2c1cc([C@H]1[C@H]3C[C@H](C[C@@H]3OC(F)F)N1C(=O)C1CC1)n2C1[C@H]2CN[C@@H]1C2 (stereo partly drawn) [Example 30, 3-((7R)-1-((1R,4R)-2-azabicyclo[2.1.1]hexan-5-yl)-2-((1R,3R,4R,5S)-2-(cyclopropanecarbonyl)-5-(difluoromethoxy)-2-azabicyclo[2.2.1]heptan-3-yl)-7-(2,3-dichlorophenyl)-6-fluoro-4-methyl-1H-pyrrolo[3,2-c]quinolin-8-yl)propanenitrile]	≤ 100	≤ 100
Cc1nc2c(F)c(-c3cccc(Cl)c3Cl)c(CCC#N)cc2c2c1cc([C@H]1[C@H]3C[C@H]([C@@H]4C[C@@H]43)N1C(=O)C1CC1)n2[C@H]1[C@H]2CN[C@@H]1C2 (atropisomer, axis not shown; (Ra)) [Example 3, 3-((Ra)-1-((1R,4R,5S)-2-Azabicyclo[2.1.1]hexan-5-yl)-2-((1S,2S,4R,5R,7R)-6-(cyclopropanecarbonyl)-6-azatricyclo[3.2.1.0^2,4]octan-7-yl)-7-(2,3-dichlorophenyl)-6-fluoro-4-methyl-1H-pyrrolo[3,2-c]quinolin-8-yl)propanenitrile]	≤ 100	≤ 100
Cc1nc2c(F)c(-c3cccc(Cl)c3Cl)c(CCC#N)cc2c2c1cc([C@H]1[C@H]3C[C@H](C[C@@H]3C(F)F)N1C(=O)C1(F)CC1)n2[C@H]1[C@H]2CN[C@@H]1C2 (atropisomer, axis not shown; (Ra)) [Example 44, 3-((Ra)-1-((1R,4R,5S)-2-Azabicyclo[2.1.1]hexan-5-yl)-7-(2,3-dichlorophenyl)-2-((1R,3R,4S,5S)-5-(difluoromethyl)-2-(1-fluorocyclopropane-1-carbonyl)-2-azabicyclo[2.2.1]heptan-3-yl)-6-fluoro-4-methyl-1H-pyrrolo[3,2-c]quinolin-8-yl)propanenitrile]	≤ 100	≤ 100
